Like-named read-outs stand apart in the source and are kept apart here.
How the values were obtained:
EGFR = target: T1, EGFR (Homo sapiens, UniProt P00533); test: EGFR in-cell Western (ICW) screening protocol (EGFR inhibition assay); format: cell-based
T1 construct: host or cells: A431
In short: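 In-cell Western read-out: fixed A431 cells were co-stained for total EGFR and phospho-EGFR (Tyr1173; some runs Tyr1045). Before fixation, cells were serum-starved for 2 h, exposed to compound for 4 h, then given EGF for 10 min, usually at 10 ng/ml final (6.6 or 12.5 ng/ml in some runs).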

[1] = system: epithelial carcinoma A431 cell line; test: MTT Cell Proliferation Assay, A431 cells; format: cell-based
In short: (§1)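 Each concentration ran in quadruplicate across duplicate plates, with compounds serially diluted in DMSO and delivered at 0.5% DMSO in 0.5% FBS medium for 3 days.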

MDBK line = test: MTT Cell Proliferation Assay, MDBK cells; format: cell-based, bovine
In short: as §1

[2] = Homo sapiens, A-431, first value of 'a/b (c)', taken as A431 cells, read-out: MTT Screen, first value of cell
[3] = Bos taurus, MDBK, second value of 'a/b (c)', taken as MDBK cells, read-out: MTT Screen, second value of cell
[4] = second value of 'a/b (c)', taken as MDBK cells

T1 sequence (P00533 25-1210): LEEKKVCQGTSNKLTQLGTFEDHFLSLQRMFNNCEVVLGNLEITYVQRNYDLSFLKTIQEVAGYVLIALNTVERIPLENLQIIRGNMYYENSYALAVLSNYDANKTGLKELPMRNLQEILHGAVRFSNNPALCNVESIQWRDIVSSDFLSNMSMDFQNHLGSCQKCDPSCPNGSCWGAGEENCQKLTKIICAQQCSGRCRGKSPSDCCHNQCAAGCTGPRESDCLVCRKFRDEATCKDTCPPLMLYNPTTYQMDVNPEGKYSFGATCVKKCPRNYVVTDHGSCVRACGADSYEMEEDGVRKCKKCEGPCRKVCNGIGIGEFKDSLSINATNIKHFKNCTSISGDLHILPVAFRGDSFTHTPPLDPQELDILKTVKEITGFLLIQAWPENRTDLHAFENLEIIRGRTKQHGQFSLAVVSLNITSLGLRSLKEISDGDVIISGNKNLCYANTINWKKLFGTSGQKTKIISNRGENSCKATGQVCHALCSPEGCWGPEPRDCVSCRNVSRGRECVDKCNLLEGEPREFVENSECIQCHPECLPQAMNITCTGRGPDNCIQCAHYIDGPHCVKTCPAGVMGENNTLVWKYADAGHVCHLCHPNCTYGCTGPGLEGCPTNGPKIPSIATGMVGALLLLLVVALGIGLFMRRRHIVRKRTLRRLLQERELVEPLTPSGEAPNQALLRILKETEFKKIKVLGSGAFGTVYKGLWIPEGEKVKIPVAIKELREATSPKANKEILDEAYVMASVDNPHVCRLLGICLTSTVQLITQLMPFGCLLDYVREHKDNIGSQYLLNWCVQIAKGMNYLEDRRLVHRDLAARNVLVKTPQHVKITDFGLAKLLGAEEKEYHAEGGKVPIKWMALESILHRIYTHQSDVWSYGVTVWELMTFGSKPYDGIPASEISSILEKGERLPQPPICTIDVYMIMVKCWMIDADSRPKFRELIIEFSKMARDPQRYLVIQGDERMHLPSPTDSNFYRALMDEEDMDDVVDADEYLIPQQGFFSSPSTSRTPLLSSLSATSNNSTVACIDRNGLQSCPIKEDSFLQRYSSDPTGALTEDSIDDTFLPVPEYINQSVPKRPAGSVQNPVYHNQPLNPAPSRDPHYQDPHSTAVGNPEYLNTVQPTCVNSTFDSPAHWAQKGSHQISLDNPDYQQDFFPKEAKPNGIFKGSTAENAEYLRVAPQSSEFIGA

| Structure (SMILES) | ICW Screen (ICW Inhibition) (EGFR) | IC50 [1, 2] [µM] | IC50 (MDBK line; [3]) [µM] | further results |
| --- | --- | --- | --- | --- |
| COc1ccc(NC(=S)Nc2ccc(S(=O)(=O)Nc3ccc(Cl)c(Cl)c3)cc2)cc1OC [AD4-11432] |  |  |  | ICW assay (EGFR; Table 10, % Inhibition of EGF dependent EGFR phosphorylation in A431 cells, compound 125 μM in assay): 47.0006; IC50 ([1]; Table 10, first of x/y(ratio): A431, three day treatment, unit not printed (doses in μM), read-out: MTT assay (first value)): 7.8 µM; IC50 (MDBK line; Table 10, second of x/y(ratio): MDBK, three day treatment, unit not printed (doses in μM), read-out: MTT assay (second value)): 7.82 µM |
| CC(C)NS(=O)(=O)c1ccc(NC(=S)NC(=O)CCCCCOc2ccc(Cl)cc2Cl)cc1 [AD4-11538] | 34.978 | 5.48 | 5.19 |  |
| CCc1nnc(NS(=O)(=O)c2ccc(NC(=S)NC(=O)/C=C/c3ccc(OC)cc3)cc2)s1 [AD4-11637] | 33.491 |  | 17.8 | MTT Screen, first value of cell ([1]; first value of 'a/b (c)', taken as A431 cells): non- conver- gent |
| COc1cc(NS(=O)(=O)c2ccc(NC(=S)NC(=O)/C=C/c3ccc(C(C)C)cc3)cc2)nc(OC)n1 [AD4-11638] | 68.754 | 11.2 | 14.9 |  |
| Cc1cc(C)nc(NS(=O)(=O)c2ccc(NC(=S)NC(=O)/C=C/c3ccc(C(C)C)cc3)cc2)n1 [AD4-11642] | 40.922 | 9.89 | 9.46 |  |
| COc1ccc(/C=C/C(=O)NC(=S)Nc2ccc(S(=O)(=O)Nc3cc(OC)nc(OC)n3)cc2)cc1 [AD4-11645] | 66.452 | 45.6 | 47 |  |
| COc1ccc(/C=C/C(=O)NC(=S)Nc2ccc(S(=O)(=O)Nc3nc(C)cc(C)n3)cc2)cc1 [AD4-11646] | 37.949 | 19.4 | 21.1 |  |
| Cc1cc(C)nc(NS(=O)(=O)c2ccc(NC(=S)NC(=O)/C=C/c3ccc(Cl)cc3)cc2)n1 [AD4-11648] | 38.362 | 46.7 | 45.1 |  |
| COc1ccc(/C=C/C(=O)NC(=S)Nc2ccc(S(=O)(=O)Nc3cc(C)on3)cc2)cc1 [AD4-11867] | 32.432 | 51 | 48.1 |  |
| COc1cc(NS(=O)(=O)c2ccc(NC(=S)NC(=O)/C=C/c3ccco3)cc2)ncn1 [AD4-11870] | 30.849 | 55.1 | 47.3 |  |
| Cc1cc(C)nc(NS(=O)(=O)c2ccc(NC(=S)NC(=O)/C=C/c3ccc(F)cc3)cc2)n1 [AD4-11871] | 45.776 | 49.7 | 41.8 |  |
| COc1cc(NS(=O)(=O)c2ccc(NC(=S)NC(=O)/C=C/c3ccc(C)cc3)cc2)nc(OC)n1 [AD4-11874] | 32.474 | 35 | 39 |  |
| CCc1nnc(NS(=O)(=O)c2ccc(NC(=S)NC(=O)/C=C/c3cccs3)cc2)s1 [AD4-11880] | 37.604 | 47.3 | 47.3 |  |
| COc1cc(NS(=O)(=O)c2ccc(NC(=S)NC(=O)/C=C/c3cccs3)cc2)nc(OC)n1 [AD4-11881] | 34.08 | 63.3 | 46.5 |  |
| COc1ccc(/C=C/C(=O)NC(=S)Nc2ccc(S(=O)(=O)Nc3nc(C)cc(C)n3)cc2)cc1OC [AD4-11883] | 83.13 | 19.5 |  | MTT Screen, second value of cell (MDBK line; [4]): non- conver- gent |
| Cc1cc(NS(=O)(=O)c2ccc(NC(=S)NC(=O)/C=C/c3ccccc3)cc2)no1 [AD4-11885] | 32.38 |  |  | IC50 ([1]; first value of 'a/b (c)', taken as A431 cells, read-out: MTT Screen, first value of cell): 37.8 µM; IC50 (MDBK line; second value of 'a/b (c)', taken as MDBK cells, read-out: MTT Screen, second value of cell): 48.3 µM |
| Cc1ccc(NS(=O)(=O)c2ccc(NC(=S)NC(=O)C(C)(C)C)cc2)c(C)c1 [AD4-11968] | 45.095 | 6.49 | 6.29 |  |
| COc1ccc(NS(=O)(=O)c2ccc(NC(=S)NC(=O)C(C)C)cc2)cc1 [AD4-11971] | 44.908 | 41.5 | 41.1 |  |
| CC(C)CC(=O)NC(=S)Nc1ccc(S(=O)(=O)Nc2ccccc2)cc1 [AD4-11975] | 75.826 | 17.5 | 17.2 |  |
| CC1CCN(S(=O)(=O)c2ccc(NC(=S)NC(=O)C(C)C)cc2)CC1 [AD4-11977] | 33.588 | 32.5 |  | MTT Screen, second value of cell (MDBK line; [4]): non- conver- gent |
| C=CCN(CC=C)S(=O)(=O)c1ccc(NC(=S)NC(=O)/C=C/c2cccs2)cc1 [AD4-11979] | 39.775 | 9.31 | 16.2 |  |
| CCOC(=O)CCC(=O)NC(=S)Nc1ccc(S(=O)(=O)Nc2cc(OC)nc(OC)n2)cc1 [AD4-11980] | 25.235 | 49.8 | 24.4 |  |
| CC(C)C(=O)NC(=S)Nc1ccc(S(=O)(=O)NC2CCCCC2)cc1 [AD4-11985] | 40.346 | 62.5 | 39.9 |  |

Source: patent US20140179681A1, “METHODS AND COMPOSITIONS OF TARGETED DRUG DEVELOPMENT” (priority 2010, published 2014)
